Counter-ions that a name gives are not always drawn.
Each compound was assayed against T1, Acetylcholinesterase (Rattus norvegicus, UniProt P37136) (assay: Cholinesterase inhibitory activity with (acetyl[^3 H])-acetylcholine). Settings: S1 fraction of homogenate of male Wistar rat cerebral cortex; 30 minutes incubation.
T1 construct: S1 fraction of a homogenate of male Wistar rat cerebral cortex as the cholinesterase source; from tissue; host or cells: male Wistar rat cerebral cortex, S1 fraction of homogenate
T1 sequence (P37136 32-614): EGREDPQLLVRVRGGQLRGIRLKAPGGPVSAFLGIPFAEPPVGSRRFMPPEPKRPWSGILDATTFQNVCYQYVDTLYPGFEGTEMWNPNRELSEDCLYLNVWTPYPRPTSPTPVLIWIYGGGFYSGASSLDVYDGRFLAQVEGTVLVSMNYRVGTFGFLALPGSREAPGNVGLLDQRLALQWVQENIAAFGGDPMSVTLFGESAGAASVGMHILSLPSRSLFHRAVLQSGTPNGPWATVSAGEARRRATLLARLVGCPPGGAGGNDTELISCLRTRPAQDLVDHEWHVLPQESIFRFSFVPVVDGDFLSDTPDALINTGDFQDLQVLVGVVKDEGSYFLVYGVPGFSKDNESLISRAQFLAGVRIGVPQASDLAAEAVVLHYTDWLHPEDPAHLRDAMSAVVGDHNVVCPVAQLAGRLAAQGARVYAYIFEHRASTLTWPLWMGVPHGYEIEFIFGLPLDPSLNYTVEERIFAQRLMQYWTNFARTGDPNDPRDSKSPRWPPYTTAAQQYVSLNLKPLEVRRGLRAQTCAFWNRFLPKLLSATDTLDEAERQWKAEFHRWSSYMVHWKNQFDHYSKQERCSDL
Type: biochemical
Procedure: The cholinesterase inhibitory activity of the compound of this invention was assayed with (acetyl[^3 H])-acetylcholine. More specifically, (acetyl[^3 H])-acetylcholine as the substrate and the compound of this invention as the test sample were added to the S1 fraction of a homogenate of male Wistar rat cerebral cortex as the cholinesterase source. The mixture was incubated for 30 minutes, after completion of the reaction, to the reaction mixture was added a toluene-based scintillator, and the mixture was shaken. The reaction product [^3 H]-acetic acid was transferred to the toluene layer, which was subjected to determination of cholinesterase inhibitory activity by counting with a liquid scintillation counter.
The cholinesterase inhibitory activity of the test compound was expressed in 50% inhibitory concentration (IC50).
Work on `O=C(CCC1CCN(Cc2ccccc2)CC1)c1ccc2c(c1)CNCCO2` [3-A, 3-[1-(Phenylmethyl)piperidin-4-yl]-1-(2,3,4,5-tetrahydro-1,4-benzoxazepin-7-yl)-1-propanone dihydrochloride] yielded an IC50 of 17.5 nM.
`Cl.Cl.O=C(CCC1CCN(Cc2ccccc2)CC1)c1ccc2c(c1)CN(Cc1ccccc1)CCO2` [3-B, 1-[4-(Phenylmethyl)-2,3,4,5-tetrahydro-1,4-benzoxazepin-7-yl]-3-[1-(phenylmethyl)piperidin-4-yl]-1-propanone dihydrochloride] gave an IC50 of 119 nM.
`O=C(CCC1CCN(Cc2ccccc2)CC1)c1ccc2c(c1)CN(Cc1ccc([N+](=O)[O-])cc1)CCO2` [8-5] gave an IC50 of 12.7 nM.
`CC(=O)N1CCOc2ccc(C(=O)CCC3CCN(Cc4ccccc4)CC3)cc2C1` [Example 4, 1-(4-Acetyl-2,3,4,5-tetrahydro-1,4-benzoxazepin-7-yl)-3-[1-(phenylmethyl)piperidin-4-yl]-1-propanone hydrochloride] was tested, and the IC50 was 54.5 nM.
With `COc1ccc(CN2CCOc3ccc(C(=O)CCC4CCN(Cc5ccccc5)CC4)cc3C2)cc1` [Example 5, 1-[4-(4-Methoxyphenylmethyl)-2,3,4,5-tetrahydro-1,4-benzoxazepin-7-yl]-3-[1-(phenylmethyl)piperidin-4-yl]-1-propanone dihydrochloride] the IC50 was 69.6 nM.
For `O=CN1CCOc2ccc(C(=O)CCN3CCN(Cc4ccccc4)CC3)cc2C1` [Example 6, 1-(4-Formyl-2,3,4,5-tetrahydro-1,4-benzoxazepin-7-yl)-3-[4-(phenylmethyl)piperazin-1-yl]-1-propanone dihydrochloride], the IC50 was 107 nM.

These compounds were tested on mice (assay: Antidepressant activity, tail suspension test). Settings: 30 mg/kg, oral; thirty minutes later suspended on tails for 10 minutes; **P < 0.01; saline 49.45 ± 2.47.
Type: in vivo, ICR male mice
Procedure: The antidepressant activity of the compound of the present invention was assayed by means of tail suspension test using ICR male mice (five weeks of age, weighing 23.5 to 37.6 g) as test animals. […]. Thirty minutes later, the mice were suspended on tails for 10 minutes and immobility thereof (% control) was measured. The antidepressant activity of the test compound was shown as in percent control of immobility. As a comparative compound, desipramine, which is known to have an antidepressant activity, was employed and the immobility thereof was measured in the same manner as described above.
With `Cl.Cl.O=C(CCC1CCN(Cc2ccccc2)CC1)c1ccc2c(c1)CN(Cc1ccccc1)CCO2` [3-B, 1-[4-(Phenylmethyl)-2,3,4,5-tetrahydro-1,4-benzoxazepin-7-yl]-3-[1-(phenylmethyl)piperidin-4-yl]-1-propanone dihydrochloride] the Immobility was 34.37 ± 4.49%.
`CNCCCN1c2ccccc2CCc2ccccc21` [desipramine, reference compound] gave an Immobility of 37.25 ± 3.32%.
